Counter-ions that a name gives are not always drawn. Like-named read-outs stand apart in the source and are kept apart here. One block for each compound: values may come before it.
Experiments:
AB5075 [1] = assay: Broth microdilution clarithromycin (CLR) potentiation and dose-response of adjuvant; type: cell-based, Acinetobacter baumannii; details: for adjuvant activity (CLR potentiation), rank by amide linker position: dosed at 30 μM
Procedure: (§1) Bacterial Strains and Antimicrobial Agents. Acinetobacter baumannii clinical isolate 5075 was obtained from Dr. Colin Manoil at the University of Washington. Colonies were grown on lysogeny broth (LB) agar. Cation-adjusted Mueller-Hinton Broth (CAMHB) (catalog number 212322) were purchased from BD Diagnostics. LB broth was purchased from Fisher Scientific (catalog number BP9722-2). […] Colistin sulfate salt (catalog number C4461) was purchased from Sigma Aldrich. All assays were completed in duplicate and repeated at least two separate times. All compounds were dissolved as their HCl salts in molecular biology grade DMSO as 10 or 100 mM stock solutions and stored at −20° C. Colistin was dissolved in sterile water while clarithromycin was dissolved in molecular biology grade DMSO.
Broth microdilution method for antibiotic potentiation. Day cultures (6 h) of bacteria in CAMHB were subcultured to 5×10^5 CFU/mL in CAMHB. Aliquots (4 mL) were placed in culture tubes and dosed with compound from 10 mM stock samples to give the desired concentration of the compound to be tested against the particular bacterial strain; this insured non-toxic DMSO concentrations ≤0.3% in each well. 1 mL of the resulting solution was placed in a separate culture and dosed with antibiotic at the highest concentration to be tested. Bacteria treated with antibiotic alone served as the control. Row one of a 96-well plate was filled with 200 μL of the antibiotic/2-AI solution, and rows 2-12 were filled with 100 μL each of the remaining 4 mL of bacterial subculture containing adjuvant at the desired concentration, except for the control lane which contained only bacterial subculture. Row one was then mixed five times, and 100 μL was transferred to row two, which was then mixed five times before being transferred to row three. This process was repeated until all rows had been mixed, except for row twelve which would have only 2-AI to serve as a control to monitor potential toxicity. The 96-well plate was then covered in Glad Press n'Seal and incubated under stationary conditions at 37° C. for 16 h. MIC values were determined as the lowest concentration at which no bacterial growth was observed, and fold reductions were determined by comparison to antibiotic control lane.
Dose-response of Adjuvant Assay. The procedure for ‘broth microdilution method for antibiotic potentiation’ was followed using 4 mL aliquots of adjuvant at various concentrations: 0, 5, 7.5, 10, 15, 20, 25, and 30 μM.

AB5075 [2] = assay: Broth microdilution MIC of compound alone (standalone toxicity); type: cell-based, Acinetobacter baumannii
Procedure: as §1
Broth microdilution method for MIC determination. Day cultures (6 h) of each bacterial strain in cation adjusted Mueller Hinton II broth (CAMHB, Fisher Scientific U.S.) were subcultured to 5×10^5 CFU/mL in CAMHB. Aliquots (1 mL) were placed in culture tubes and compound was added from 10 mM stock samples in DMSO, such that compound concentration equaled highest concentration tested (200 μM). Samples were then aliquoted (200 μL) into the first wells of a 96-well plate, with all remaining wells being filled with 100 μL of initial bacterial subculture. Row one wells were mixed five times, before 100 μL was transferred to row two. Row two was then mixed five times, and 100 μL was transferred to row three. This process was repeated until the final row had been mixed; this served to serially dilute the compound. Plates were then covered with GLAD Press n'Seal and incubated under stationary conditions at 37° C. for 16 h. MIC values were then recorded as the lowest concentration at which no bacterial growth was observed.

Compound: Cl.Nc1nc(-c2ccc(NC(=O)c3ccc(Cl)cc3)cc2)c[nH]1 [Compound 4i, 4-(2-Amino-3H-imidazol-4-yl)phenyl]-4-chlorobenzamide hydrochloride]
MIC (AB5075 [2]; Acinetobacter baumannii): > 200 µM

Compound: Nc1nc(-c2cccc(NC(=O)c3cc(F)cc(F)c3)c2)c[nH]1 [Compound 18]
adjuvant activity (CLR potentiation), rank by amide linker position (AB5075 [1]): 4k (highest adjuvant activity) >meta amide linker 18>ortho amide linker 19

Compound: Cl.Nc1nc(-c2ccc(NC(=O)c3cc(C(F)(F)F)cc(C(F)(F)F)c3)cc2)c[nH]1 [Compound 4l, 4-(2-Amino-3H-imidazol-4-yl)phenyl]-3,5-(bistrifluoromethyl)benzamide hydrochloride]
MIC (AB5075 [2]; Acinetobacter baumannii): 50 µM

Compound: Nc1nc(-c2ccccc2NC(=O)c2cc(F)cc(F)c2)c[nH]1 [Compound 19]
adjuvant activity (CLR potentiation), rank by amide linker position (AB5075 [1]): lowest adjuvant activity

Compound: Nc1nc(-c2ccc(NC(=O)c3ccccc3)cc2)c[nH]1 [Compound 4a, N-(4-(2-amino-1H-imidazol-4-yl)phenyl)benzamide hydrochloride]
MIC (AB5075 [2]; Acinetobacter baumannii): > 200 µM

Compound: Nc1nc(-c2ccc(NC(=O)c3ccc(Br)cc3)cc2)c[nH]1 [Compound 4h, N-(4-(2-amino-1H-imidazol-4-yl)phenyl)-4-bromobenzamide hydrochloride]
MIC (AB5075 [2]; Acinetobacter baumannii): > 200 µM

Compound: Cl.Nc1nc(-c2ccc(NC(=O)c3cccc(Cl)c3)cc2)c[nH]1 [Compound 4d, 4-(2-Amino-3H-imidazol-4-yl)phenyl]-3-chlorobenzamide hydrochloride]
MIC (AB5075 [2]; Acinetobacter baumannii): 200 µM

Second part, led by results:

CLR MIC (AB5075 [1]; compound tested at 30 μM): 32 µg/mL
Compound: Cl.Nc1nc(-c2ccc(NC(=O)c3cccc(Br)c3)cc2)c[nH]1 [Compound 4c]
MIC (AB5075 [2]): >200 µM

CLR MIC (AB5075 [1]; compound tested at 5 μM): 8 µg/mL
Fold Reduction of CLR MIC (AB5075 [1]; compound tested at 5 μM): 4 fold
CLR MIC (AB5075 [1]; compound tested at 7.5 μM): 4 µg/mL
CLR MIC (AB5075 [1]; compound tested at 10 μM): 0.5 µg/mL
Fold Reduction of CLR MIC (AB5075 [1]; compound tested at 10 μM): 64 fold
CLR MIC (AB5075 [1]; compound tested at 20 μM): 0.25 µg/mL
Fold Reduction of CLR MIC (AB5075 [1]; compound tested at 20 μM): 128 fold
CLR MIC (AB5075 [1]; compound tested at 30 μM, hydrochloride): 0.25 µg/mL
Compound: Cl.Nc1nc(-c2ccc(NC(=O)c3cc(Cl)cc(Cl)c3)cc2F)c[nH]1 [Compound 10d, N-(4-(2-amino-1H-imidazol-4-yl)-3-fluorophenyl)-3,5-dichlorobenzamide hydrochloride]
MIC (AB5075 [2]; Acinetobacter baumannii): > 200 µM

CLR MIC (AB5075 [1]; compound dosed at higher concentrations (≥20 μM)): ≤ 0.0625 µg/mL
CLR MIC (AB5075 [1]; compound tested at 5 μM): 8 µg/mL
Fold Reduction of CLR MIC (AB5075 [1]; compound tested at 5 μM): 4 fold
CLR MIC (AB5075 [1]; compound tested at 7.5 μM): 2 µg/mL
Fold Reduction of CLR MIC (AB5075 [1]; compound tested at 7.5 μM): 16 fold
CLR MIC (AB5075 [1]; compound tested at 10 μM): 0.25 µg/mL
Fold Reduction of CLR MIC (AB5075 [1]; compound tested at 10 μM): 128 fold
CLR MIC (AB5075 [1]; compound tested at 20 μM): ≤0.0625 µg/mL
Fold Reduction of CLR MIC (AB5075 [1]; compound tested at 20 μM): ≥512 fold
Compound: Cl.Nc1nc(-c2ccc(NC(=O)Nc3ccc(Cl)c(Cl)c3)cc2)c[nH]1 [Compound 20c, 1-(4-(2-amino-1H-imidazol-4-yl)phenyl)-3-(3,4-dichlorophenyl)urea hydrochloride]
MIC (AB5075 [2]; Acinetobacter baumannii): 100 µM

CLR MIC (AB5075 [1]; compound tested at 7.5 μM): 8 µg/mL
CLR MIC (AB5075 [1]; compound tested at 10 μM): 0.25 µg/mL
Fold Reduction of CLR MIC (AB5075 [1]; compound tested at 10 μM): 128 fold
CLR MIC (AB5075 [1]; compound tested at 20 μM): 0.25 µg/mL
Compound: Cl.Nc1nc(-c2ccc(NC(=O)c3cc(Cl)c(Br)c(Cl)c3)cc2)c[nH]1 [Compound 4y, N-(4-(2-amino-1H-imidazol-4-yl)phenyl)-4-bromo-3,5-dichlorobenzamide hydrochloride]
MIC (AB5075 [2]; Acinetobacter baumannii): 200 µM

CLR MIC (AB5075 [1]; compound tested at 15 μM): 8 µg/mL
Compound: Cl.Nc1nc(-c2ccc(NC(=O)c3cc(C(F)(F)F)cc(C(F)(F)F)c3)cc2)c[nH]1 [Compound 4l]

CLR MIC (AB5075 [1]; compound tested at 10 μM): 16 µg/mL
CLR MIC (AB5075 [1]; compound tested at 20 μM): 4 µg/mL
Compound: Cl.Nc1nc(-c2ccc(NC(=O)c3cccc(Cl)c3)cc2)c[nH]1 [Compound 4d]

CLR MIC (AB5075 [1]; compound tested at 10 μM): 16 µg/mL
CLR MIC (AB5075 [1]; compound tested at 20 μM): 4 µg/mL
Compound: Cl.Nc1nc(-c2ccc(NC(=O)c3ccc(Cl)cc3)cc2)c[nH]1 [Compound 4i]

Fold Reduction of CLR MIC (AB5075 [1]; compound tested at 10 μM): two-fold
CLR MIC (AB5075 [1]; compound tested at 20 μM): 8 µg/mL
CLR MIC (AB5075 [1]; compound tested at 30 μM): 4 µg/mL
Compound: Cl.Nc1nc(-c2c(F)cc(NC(=O)c3cc(Cl)cc(Cl)c3)cc2F)c[nH]1 [Compound 13, N-(4-(2-amino-1H-imidazol-4-yl)-3,5-difluorophenyl)-3,5-dichlorobenzamide hydrochloride]
